Here are results for 6 molecules from patent US20150202308A1, “BUDESONIDE FORMULATION” (Nephron Pharmaceuticals Corporation, priority 2014, published 2015).

Bounds are passed on as bounds.

What all share (assay type): physicochemical
A short description of series [1]: Alternative beta-cyclodextrins for complexation with budesonide (% assay). To be noted: for % Assay: budesonide inhalation solution 0.188 mg/mL. The procedure:
(§1) Preparation of Lab Batches: Tared a clean/dry beaker+stir bar. Weighed and transferred Budesonide and cyclodextrin into the beaker and mixed dry to achieve uniform dispersion. Dissolved with a portion of stock buffer solution to create a saturated ionic phase and mixed for 5-20 minutes. Slowly diluted with the buffer solution and mixed for an additional 5-10 minutes. The pH of the solution was then adjusted with 1M citric acid or 1M NaOH and diluted to the final volume with purified water. While mixing, the solution was sparged with nitrogen for 30 minutes.
Alternative Beta-Cyclodextrins for Complexation: Laboratory batches of budesonide inhalation solution 0.188 mg/mL were prepared in buffer and water according to the procedure described above using 2-hydroxyethyl-B-cyclodextrin and Heptakis 2,6-Di-O-Methyl-B-cyclodextrin.

Series [2] is described as follows: Preliminary proof of concept studies of the new complexation process.
The nature of series [3]: Complexation rate in buffer vs. water (filtered slurry, UV-Vis). To be noted: excess Budesonide, 2 g 2-HY-B-CD in 12.5 mL concentrated buffer or water; FIG. 1. The procedure:
To evaluate the initial association rate of Budesonide with 2-hydroxypropyl-beta-cyclodextrin, excess Budesonide was mixed with 2 g of 2-HY-B-CD in 12.5 mL of concentrated buffer solution or water. 1.0 mL of this slurry was filtered through a 0.2 syringe filter to remove un-complexed Budesonide and evaluated by UV-Vis at 2 minute intervals. A positive control prepared from filtered Budesonide Inhalation Suspension containing 0.25 mg/mL of Budesonide was used to ensure non-interference. […] This is consistent with the particle size distribution of the API which has a small percentage of Budesonide with <0.2 μm particle size diameter. This small amount of Budesonide was determined not to be significant enough to bias the results.

Series [4] in a line: Filtration study of laboratory batches (assay before and after 0.22 μm filters). To be noted: Budesonide with 2-hydroxypropyl-β-cyclodextrin, room temperature. The procedure: In this study 50 mL of 5 separate laboratory batches were filtered through PTFE, PVDF, and PES 0.22 μm filters. In the case that the complexation reaction was not completed, the filtration process would remove the un-complexed budesonide producing a significant difference between the assay values before and after filtration. For each of the lab batches tested, no significant difference between pre and post filter assay values was detected, indicating 100% complexation.

Series [5] in a line: Minimum concentration of 2-hydroxypropyl-B-cyclodextrin for complexation (assay). On the procedure: Studies were conducted to determine the minimum concentration of 2-Hy-B-cyclodextrin required to achieve 100% budesonide complexation. […] To evaluate if a lower concentration may be used a study was conducted to evaluate if 100% complexation was possible at between 0.5% and 3.0% cyclodextrin. • Complexation efficiency in buffer vs. water: Traditional methods of complexation are usually carried out in water. We conducted studies to evaluate the efficiency of Budesonide-cyclodextrin complexation using a complexation solution of high ionic strength and using purified water. • Alternative Salts or Complexation: The ionic strength of the Buffer solution was calculated to be approximately 508 mol/m^−3. Two alternative salts, Sodium Chloride and Potassium Chloride, and a Phosphate buffer were prepared at the same ionic strength. Laboratory batches of budesonide inhalation solution were prepared using each alternative ionic adjuster to evaluate the effects of various salts on the formulation process. • Alternative Beta-Cyclodextrins for Complexation: […] additional Beta Cyclodextrins, 2-hydroxyethyl-B-cyclodextrin and Heptakis 2,6-Di-O-Methyl-B-cyclodextrin, were evaluated as potential alternatives for complexation with Budesonide.
as §1
Laboratory batches of budesonide inhalation Solution 0.188 mg/mL were prepared to determine the minimum concentration of 2-Hydroxypropyl-B-cyclodextrin required for an effective formulation. Each laboratory batch was prepared as per the procedure described above.

A short description of series [6]: Complexation efficiency of budesonide with 2-HY-B-cyclodextrin in buffer vs. water (end point % assay). To be noted: for % Assay at T = min. (amount of Budesonide complexed): 3% 2-HY-B-Cyclodextrin; for time to reach 100% complexation: determined from the data. The procedure: as §1
An end point analysis was conducted to evaluate the efficiency of the formulation procedure. Laboratory batches of Budesonide Inhalation Solution were prepared in 3% 2-HY-B-Cyclodextrin and assayed to evaluate the efficiency of the formulation procedure. During the second study, the rate of complexation between Budesonide and 2-HY-B-Cyclodextrin was evaluated in both Buffer and Water.
Six laboratory batches of Budesonide Inhalation Solution were prepared as described above, 3 each in buffer and water. The amount of Budesonide complexed was evaluated at 5 minutes, 8 minutes and 12 minutes for each solvent and compared to the expected concentration at the 100% level.

Series [7] is described as follows: EDTA and gamma-cyclodextrin effects on formulation stability. To be noted: for effect on formulation stability / effect of varying the amount on stability: 90 days at 40° C.; for effect of varying the amount on stability: varied beginning at 0.05%. The procedure:
A study was designed to evaluate the effects of EDTA and γ-CD on the formulation stability. Both γ-CD and EDTA were varied beginning at 0.05% and tested at 30 day intervals for 90 days stored at 40° C.

Where [8] appears, read: budesonide at 0.188 mg/mL, in buffer.

In the case of 2-Hydroxyethyl-B-cyclodextrin, the “% Assay” value amounted to 66.7% in series [1] (3% cyclodextrin), 90.3% in series [1] (6% cyclodextrin) and 96.4% in series [1] (8% cyclodextrin). Besides, the “efficiency of complexation possible” value in series [1] (within the proposed range of cyclodextrin (3%-8%)) turned out to be 100%.
Consider “2-Hydroxypropyl-β-cyclodextrin [HP-β-CD]”, for which the “percent of HP-β-CD required” value in series [2] was below 10%.
Regarding `COCC1OC2OC3C(COC)OC(OC4C(COC)OC(OC5C(COC)OC(OC6C(COC)OC(OC7C(COC)OC(OC8C(COC)OC(OC1C(O)C2OC)C(OC)C8O)C(OC)C7O)C(OC)C6O)C(OC)C5O)C(OC)C4O)C(OC)C3O` (stereo not drawn) [2,6-di-o-mehtyl, Heptakis 2,6-Di-O-Methyl-B-cyclodextrin], in series [1] (setting [8]), the “efficiency of complexation with available budesonide” value amounted to 100% and the “time to 100% efficiency of complexation” value lay in the range of 3 to 5 min. The “% Assay” value in series [1] (3% cyclodextrin) is 101.9%.
As to `CCCC1O[C@@H]2C[C@H]3[C@@H]4CCC5=CC(=O)C=C[C@]5(C)[C@H]4[C@@H](O)C[C@]3(C)[C@]2(C(=O)CO)O1` (stereo partly drawn) [Budesonide, 16,17-(butylidenebis(oxy))-11,21-dihydroxy-, (11-β,16-α)-pregna-1,4-diene-3,20-dione], the “rate of complexation with 2-hydoxypropyl-B-cyclodextrin” value in series [3] is listed as “much higher rate in buffer than in water”. Further, the “time to virtually 100% complexation efficiency” value in series [4] was “less than 10 minutes”. Also, the complexation efficiency in series [4] (no organic solvents) was around 100%. The “minimum desirable concentration of cyclodextrin to meet the USP monograph” value in series [5] was at least 3.0%. Also, the Assay in series [5] (0.188 mg/mL, 0.5% cyclodextrin, molar ratio 8.4) came out at 75.9%; in series [5] (0.188 mg/mL, 1.0% cyclodextrin, molar ratio 16.8), 85.9%; in series [5] (0.188 mg/mL, 1.5% cyclodextrin, molar ratio 25.2) it was 91.5%; in series [5] (0.188 mg/mL, 2.0% cyclodextrin, molar ratio 33.6) it was 95.5%; in series [5] (0.188 mg/mL, 2.5% cyclodextrin, molar ratio 41.9), 95.7%; in series [5] (budesonide inhalation solution 0.188 mg/mL, 3.0% 2-Hydroxypropyl-B-cyclodextrin, molar ratio CD:Budesonide 50.3), 99.4%. Further, the “complexation of Budesonide” value in series [5] (3.0% 2-Hydroxypropyl-B-cyclodextrin, molar ratio 50.33) worked out at 100%; in series [5] (4% (w/v) beta-cyclodextrin, Budesonide at 0.188 mg/mL, stable), 100%. Also, the “ratio of epimer A (of total content)” value in series [5] (below 3.0% Beta-cyclodextrin, USP criterion 40%-51%) is “exceeded 51%”. In addition, the “% Assay at T = min. (amount of Budesonide complexed)” value in series [6] (solvent Buffer, 5 minutes, vs expected concentration at 100% level) worked out at 91.1%; in series [6] (solvent Buffer, 8 minutes), 96.3%; in series [6] (solvent Buffer, 12 minutes) it was 99.7%; in series [6] (solvent Water, 5 minutes), 71.9%; in series [6] (solvent Water, 8 minutes) it was 78.1%; in series [6] (solvent Water, 12 minutes) it was 89.7%. Also, the “increase in the initial complexation efficiency” value in series [6] (batches in concentrated buffer solution over those prepared in water) is recorded as around 22%. The increase in efficiency in series [6] (buffer vs. water, from times to 100% complexation) came to 180%. Also, the “time to reach 100% complexation” value in series [6] (in buffer) is “approximately 9 minutes”; in series [6] (in water) it was around 16.2 min.
As to `O=C(O)CN(CCN(CC(=O)O)CC(=O)O)CC(=O)O` [EDTA], in series [7], the “effect on formulation stability” value is given as “positive effect on stability” and the “effect of varying the amount on stability” value is listed as “no significant effects”. The “effect on growth of impurity D” value in series [7] (previous studies) is “helps control the growth of impurity D”.
Consider `OC[C@H]1O[C@@H]2O[C@H]3[C@H](O)[C@@H](O)[C@@H](O[C@H]4[C@H](O)[C@@H](O)[C@@H](O[C@H]5[C@H](O)[C@@H](O)[C@@H](O[C@H]6[C@H](O)[C@@H](O)[C@@H](O[C@H]7[C@H](O)[C@@H](O)[C@@H](O[C@H]8[C@H](O)[C@@H](O)[C@@H](O[C@H]9[C@H](O)[C@@H](O)[C@@H](O[C@H]1[C@H](O)[C@H]2O)O[C@@H]9CO)O[C@@H]8CO)O[C@@H]7CO)O[C@@H]6CO)O[C@@H]5CO)O[C@@H]4CO)O[C@@H]3CO` [γ-CD, Gamma-cyclodextrin], for which, in series [7], the “effect on formulation stability” value is “positive effect on stability” and the “effect of varying the amount on stability” value is “no significant effects”.
